Drawing on PubChem BioAssay (NCI), this text covers GI50 and TGI for 20 compounds.

Among the test systems are ACHN renal; CCRF-CEM leukemia; HL-60(TB) leukemia; HT29 colon; MDA-MB-435; SNB-75 CNS; SW-620 colon; T-47D breast; EKVX NSCLC; M14 melanoma; SF-539 CNS.
What all share (assay): inhibition of tumour cell growth, NCI panel, 48 h

SMILES strings stand for the structures.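 In this assay, cells in 96-well plates receive the compound at five concentrations for 48 hours. Endpoints are linearly interpolated between the surrounding concentrations. Abbreviation: GI50, concentration required for 50% inhibition of growth. Definition used: TGI = concentration required for complete inhibition of growth.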

On to `Nc1ccc2c3c(n(CCCCl)c(=O)c2c1)-c1cc2c(cc1C3=O)OCO2`, for which the GI50 with ACHN renal, in the assay with CCRF-CEM leukemia, in the assay on HL-60(TB) leukemia, in the assay on HT29 colon, in the assay with MDA-MB-435 and in the assay with SNB-75 CNS was over 100000 nM each time. For the same compound, the GI50 is over 100 µM in the assay on SW-620 colon and over 100000 nM in the assay with T-47D breast. Moreover, the TGI in the assay on ACHN renal, with CCRF-CEM leukemia, with HL-60(TB) leukemia, in the assay with HT29 colon, in the assay with MDA-MB-435 and with SNB-75 CNS was over 100 µM each time. Further, the TGI with SW-620 colon and in the assay on T-47D breast was over 100 µM throughout.
Turning to `COc1ccc2c(c1)N=C1CSC(c3cccc(Br)c3)N1C2` (centres undefined), the TGI in the assay on ACHN renal is 31 µM; in the assay on EKVX NSCLC, 33.8 µM; with HL-60(TB) leukemia, 29.6 µM; in the assay on HT29 colon, 31.9 µM; in the assay with M14 melanoma, 36.2 µM; in the assay on MDA-MB-435 it was 34.5 µM. The TGI with SF-539 CNS was 41.4 µM; in the assay on SNB-75 CNS it was 38.5 µM; in the assay on SW-620 colon, over 100 µM; in the assay on T-47D breast it was over 100 µM.
In the case of `Cc1cccc2[s+]snc12`, the TGI was over 100 µM with ACHN renal; over 65.1 µM with CCRF-CEM leukemia; over 77.4 µM in the assay with EKVX NSCLC; 41.8 µM in the assay on HL-60(TB) leukemia; over 100 µM in the assay with HT29 colon; over 100 µM in the assay with M14 melanoma. Also, the TGI in the assay on SF-539 CNS is over 100 µM; in the assay with SNB-75 CNS, over 100 µM; with SW-620 colon it was 48.9 µM.
For the compound `NC(CCP(=O)(O)CCC1C=CC=CC1)C(=O)O` (centres undefined), the TGI with ACHN renal, with CCRF-CEM leukemia, in the assay on EKVX NSCLC, in the assay on HL-60(TB) leukemia, in the assay with HT29 colon and in the assay with M14 melanoma was over 100 µM in each case. The TGI in the assay on MDA-MB-435, in the assay on SF-539 CNS, with SNB-75 CNS, in the assay with SW-620 colon and with T-47D breast was over 100 µM in each case.
As for `CC(C)(C)[Si](C)(C)OCC1CCC(n2cnc3c(N)ncnc32)O1` (centres undefined), the TGI with CCRF-CEM leukemia is over 100 µM; with HL-60(TB) leukemia it was over 100 µM; in the assay on HT29 colon, over 100 µM; in the assay on M14 melanoma, over 100 µM; with MDA-MB-435, 85.2 µM; with SNB-75 CNS, over 100 µM. In addition, the TGI with SW-620 colon and in the assay on T-47D breast was over 100 µM each time.
As for `O=[N+]([O-])c1ccc(Nc2nc3ccccc3s2)cc1`, the TGI in the assay on ACHN renal is over 100 µM; in the assay with EKVX NSCLC, 40.4 µM; with HT29 colon, over 100 µM; in the assay with M14 melanoma, over 100 µM; with MDA-MB-435, over 100 µM; in the assay with SW-620 colon, over 100 µM. In the assay with T-47D breast, this compound gave a TGI of 14 µM.
Take `NNc1nc2ccccc2s1`: the TGI in the assay with ACHN renal, with CCRF-CEM leukemia, in the assay on EKVX NSCLC, in the assay on HL-60(TB) leukemia, in the assay with HT29 colon and in the assay with M14 melanoma was over 100 µM each time. Moreover, the TGI in the assay on MDA-MB-435, in the assay with SF-539 CNS, in the assay with SNB-75 CNS, in the assay with SW-620 colon and in the assay on T-47D breast was over 100 µM each time.
Regarding `CCOC(=O)/C(C#N)=C1\c2c([nH]c(=S)[nH]c2=O)Oc2ccc3ccccc3c21`, the TGI is over 100 µM with ACHN renal; 4.26 µM with CCRF-CEM leukemia; over 100 µM in the assay on EKVX NSCLC; 4.56 µM with HL-60(TB) leukemia; over 100 µM with HT29 colon; over 100 µM in the assay on M14 melanoma. Also, the TGI in the assay on MDA-MB-435 was over 100 µM; in the assay on SNB-75 CNS, 52 µM; in the assay with SW-620 colon, 12.2 µM; with T-47D breast, over 100 µM.
Turning to `Cc1ccc(Nc2nc(N)nc3c2ncn3C2OC(CO)C(O)C2O)cc1` (centres undefined), the TGI in the assay on ACHN renal, in the assay with CCRF-CEM leukemia, with EKVX NSCLC, in the assay with HL-60(TB) leukemia, with HT29 colon and in the assay on M14 melanoma was over 100 µM each time. The TGI in the assay with MDA-MB-435, in the assay with SF-539 CNS, in the assay with SNB-75 CNS, with SW-620 colon and in the assay with T-47D breast was over 100 µM in each case.
On to `c1cn2cc(-c3ccc4ncn(C5CCCCC5)c4c3)nc(-c3ccc4c(c3)ncn4C3CCCCC3)c2n1`, for which the GI50 was 1680 nM with ACHN renal; 1690 nM in the assay with CCRF-CEM leukemia; 1840 nM with HL-60(TB) leukemia; 2440 nM in the assay with HT29 colon; 1770 nM in the assay with MDA-MB-435; 1630 nM with SF-539 CNS. The GI50 was 1390 nM in the assay on SNB-75 CNS and 1900 nM in the assay on T-47D breast. For the same compound, the TGI was 3.07 µM with ACHN renal; 6.08 µM with CCRF-CEM leukemia; 4.57 µM in the assay with HL-60(TB) leukemia; 5.2 µM with HT29 colon; 3.54 µM in the assay with MDA-MB-435; 3.15 µM in the assay on SF-539 CNS. Besides, the figures for the TGI with SNB-75 CNS and in the assay on T-47D breast were 3.07 µM and 4.69 µM, respectively.
On to `COC1CC(OC2CCC3(C)C(CCC45CCC(C6=CC(=O)OC6)C(C)(CCC43)C5=O)C2)OC(C)C1O` (centres undefined), for which the TGI is 41.1 µM in the assay on ACHN renal; 50.6 µM in the assay with CCRF-CEM leukemia; over 100 µM in the assay on EKVX NSCLC; 43.7 µM with HL-60(TB) leukemia; over 100 µM in the assay with HT29 colon; over 100 µM with M14 melanoma. For the same compound, the TGI with MDA-MB-435 is over 100 µM; in the assay with SF-539 CNS it was 63.3 µM; with SNB-75 CNS it was over 100 µM; with SW-620 colon, over 100 µM; with T-47D breast, over 100 µM.
Consider `CCC(=O)NC(Nc1ccc(O)cc1)(C(F)(F)F)C(F)(F)F`, for which the TGI in the assay with ACHN renal is over 100 µM; in the assay on CCRF-CEM leukemia it was over 100 µM; in the assay on EKVX NSCLC, over 100 µM; in the assay with HL-60(TB) leukemia it was 46.5 µM; with HT29 colon, over 100 µM; in the assay on M14 melanoma it was over 100 µM. The TGI in the assay with MDA-MB-435 is 65.7 µM; in the assay on SF-539 CNS it was over 100 µM; in the assay on SNB-75 CNS, over 100 µM; in the assay on T-47D breast it was over 100 µM.
Take `CC12CCC(C(=O)N3CC=CCC3)(OC1=O)C2(C)C` (centres undefined): the TGI in the assay with CCRF-CEM leukemia, in the assay on EKVX NSCLC, in the assay on HL-60(TB) leukemia, in the assay with HT29 colon, with SF-539 CNS and in the assay with SNB-75 CNS was over 100 µM each time. In addition, the TGI in the assay with SW-620 colon was over 100 µM.
Regarding `C/C(=N/O)c1cccc(Nc2nc3ccc(Cl)cc3c3[nH]c4ccccc4c23)c1`, the TGI came to 4.5 µM in the assay with ACHN renal; 6.78 µM with HL-60(TB) leukemia; 5.36 µM in the assay on HT29 colon; 3.54 µM with M14 melanoma; 3.99 µM in the assay with MDA-MB-435; 12.3 µM in the assay on SF-539 CNS. Further, the TGI turned out to be 3.36 µM in the assay on SNB-75 CNS, 5.03 µM with SW-620 colon and 3.5 µM with T-47D breast.
With `CC1=CC(=O)C(=O)C2=C1OC1(C2)C(C)CCC2C3(C)CCC(O)C(C)(C)C3CCC21C` (centres undefined), the TGI was 31.9 µM in the assay with ACHN renal; 65.2 µM in the assay with CCRF-CEM leukemia; 5.51 µM in the assay with HL-60(TB) leukemia; 40.1 µM in the assay on HT29 colon; 37.2 µM in the assay on M14 melanoma; over 100 µM in the assay with SF-539 CNS. The TGI is over 100 µM in the assay on SNB-75 CNS and 46.1 µM in the assay with SW-620 colon.
Turning to `O=C(O)C1Cc2c([nH]c3ccccc23)C=N1` (centres undefined), the TGI in the assay on CCRF-CEM leukemia, in the assay on EKVX NSCLC, in the assay on HL-60(TB) leukemia, with HT29 colon, in the assay on SF-539 CNS and with SNB-75 CNS was over 100 µM in each case. In addition, the TGI in the assay with SW-620 colon was over 100 µM.
Consider `N=C(N)c1csc([C@@H]2O[C@H](CO)[C@@H](O)[C@H]2O)n1`, for which the TGI in the assay with ACHN renal, with CCRF-CEM leukemia, in the assay on EKVX NSCLC, in the assay on HL-60(TB) leukemia, with M14 melanoma and in the assay on SF-539 CNS was over 100 µM throughout. In addition, the TGI in the assay with SNB-75 CNS and with SW-620 colon was over 100 µM throughout.
As to `NC(=O)C(c1ccccc1)N1OC2C(=O)N(c3cccc4ccccc34)C(=O)C2C1c1c2ccccc2c(Cl)c2ccccc12` (centres undefined), the TGI in the assay with ACHN renal turned out to be 20.2 µM; in the assay on EKVX NSCLC it was 30 µM; in the assay with HL-60(TB) leukemia it was 11.2 µM; with HT29 colon it was 14.7 µM; in the assay with M14 melanoma, 15.8 µM; with MDA-MB-435 it was 22.7 µM. Besides, the TGI was 12.9 µM with SF-539 CNS, 20.4 µM with SNB-75 CNS, over 50 µM in the assay with SW-620 colon and 31.7 µM in the assay with T-47D breast.
As to `C(=NCc1ccccc1)c1ccccc1-c1ccccc1C=NCc1ccccc1`, the TGI in the assay with ACHN renal is over 10 µM; in the assay with CCRF-CEM leukemia, over 10 µM; in the assay on EKVX NSCLC it was over 10 µM; in the assay with HL-60(TB) leukemia, 5.73 µM; in the assay with HT29 colon, over 10 µM; in the assay on M14 melanoma, over 10 µM. In addition, the TGI in the assay on MDA-MB-435, in the assay with SF-539 CNS, in the assay with SNB-75 CNS, in the assay on SW-620 colon and in the assay on T-47D breast was over 10 µM in each case.
As to `COc1cc(C2=C(C#N)C(N)OC3=C2COc2ccccc23)cc(OC)c1OC` (centres undefined), the TGI in the assay with ACHN renal was 32.2 µM; in the assay on CCRF-CEM leukemia, over 100 µM; in the assay with EKVX NSCLC, 43.7 µM; with HL-60(TB) leukemia, over 100 µM; in the assay with HT29 colon it was over 100 µM; in the assay with M14 melanoma it was over 100 µM. Moreover, the values for the TGI with MDA-MB-435, with SF-539 CNS and in the assay with SW-620 colon were over 100 µM, 50.5 µM and over 100 µM, respectively.
